{"source": "patent US20060211764A1", "about": "“Cell activator, process for producing cell activator and apparatus therefor” (priority 2002, published 2006)", "key": {"subclavian lymphoma": {"system": "subclavian lymphoma", "assay": "Administration to a human patient, subclavian lymphoma", "type": "in vivo", "conditions": "female, 50 g/day for 90 days"}, "cancer": {"system": "cancer", "assay": "Several hundreds of patients suffering from cancer taking CPL", "type": "in vivo, human", "conditions": "10-20 g/day"}, "colon cancer": {"system": "colon cancer", "assay": "Administration to a human patient, colon cancer", "type": "in vivo", "conditions": "person"}, "bladder cancer": {"system": "bladder cancer", "assay": "Administration to human patients, bladder cancer", "type": "in vivo"}, "uterine/ovarian cancer": {"system": "uterine/ovarian cancer", "assay": "Administration to a human patient, uterine/ovarian cancer with ileus", "type": "in vivo", "method": "Person, two years ago, the uterus was extirpated, the ovary and fallopian duct were resected and chemotherapy was performed 3 times. During hospitalization, an ileus tube was inserted due to an ileus. Then intestinal liquid and gas were emitted. A central nutrition tube was inserted into the right subclavian vein because oral ingestion was impossible. An artificial anus and urinary duct tube were attached due to a tumor in the left abdomen. […] Cancerous pain ameliorated and the ingestion of solid food from 3/10- 5/10- 7/10-whole porridge was enabled. Discharged from the hospital 3 months later."}, "mastitis": {"system": "mastitis", "assay": "Administration to bovines, mastitis", "type": "in vivo, bovine", "method": "If an antibiotic drug is administered as usual, it takes at least one week after CR to make shipment of milk from the bovines, resulting in loss of 70,000-100,000 yen per bovine. […] Thus, the invention can contribute to dairy managerial economies."}, "pancreatic cancer": {"system": "pancreatic cancer", "assay": "Administration to a human patient, pancreatic cancer", "type": "in vivo", "conditions": "30 g/day; in approximately 1 and a half months", "from_the_text": "In approximately 1 and a half months, the patient recovered."}, "[1]": {"system": "periodontal disease bacteria", "assay": "Control of proliferation of periodontal disease bacteria"}, "liver cancer": {"system": "liver cancer", "assay": "Administration to human patients, liver cancer", "type": "in vivo", "conditions": "male"}, "cancer cells": {"system": "cancer cells", "assay": "Effects on cancer cells", "type": "cell-based", "from_the_text": "Morphologically, it causes vacuolation, and the expansion of the cytoplasm of cells, disintegration and aggregation of the nucleus. […] These are considered to inhibit not only the synthesis of ATP but also the actions of mRNA and be involved in the synthesis of RNA and DNA, and the generation of intracellular energy by acting on the metabolism of the intracellular organelle such as rough-surfaced endoplasmic reticulum, smooth-surfaced endoplasmic reticulum, ribosome, Golgi apparatus, etc., and as a result, controlling the metabolism of the cells, influencing the synthesis of proteins/glycoprotein, intracellular lipid metabolism, and movement and transport of ions. […] Morphologically, in the case that cells end up degenerating, the degeneration generally changes first to the nucleus followed by the cytoplasm."}, "lipid metabolism system": {"system": "lipid metabolism system", "assay": "Effects of CPL ingestion on lipid metabolism", "type": "in vivo"}, "[2]": {"system": "diabetes/rheumatism/hypertension", "assay": "Administration to a human patient, diabetes/rheumatism/hypertension", "type": "in vivo", "conditions": "person; 15 g/day for 30 days, then up to 20 g/day"}, "lung cancer": {"system": "lung cancer", "assay": "MIRS values in a patient suffering from lung cancer before and after taking CPL", "type": "in vivo, human", "conditions": "after taking CPL; FIG. 15", "description": "In addition, changes in MIRS values in a patient suffering from lung cancer before and after taking CPL."}, "laryngeal cancer": {"system": "laryngeal cancer", "assay": "Administration to a human patient, laryngeal cancer", "type": "in vivo", "conditions": "person; 20 g/day for 150 days"}, "[3]": {"system": "bone-thinning disease osteoporosis", "assay": "Administration to a human patient, osteoporosis", "type": "in vivo", "conditions": "person; 6 g/day for 180 days"}, "[4]": {"assay": "Blood screening and biochemical examination of blood in bovines given CPL", "type": "in vivo, bovine"}, "pneumonia": {"system": "pneumonia", "assay": "Administration to bovine, pneumonia", "type": "in vivo", "conditions": "20 g/day for 1-2 days"}, "diarrhea": {"system": "diarrhea", "assay": "Administration to calves, diarrhea", "type": "in vivo, bovine", "from_the_text": "Diarrhea frequently occurred in calves when changing to the milk substitute, which is thought to inhibit normal development of the calves. Then farmers may suffer a serious loss."}, "[5]": {"assay": "Administration to bovines antepartum", "type": "in vivo, bovine", "description": "From 3 to 5 days before expected date of delivery, 50 g/day of CPL administration was initiated."}, "endometriosis": {"system": "endometriosis", "assay": "Administration to human patients, endometriosis", "type": "in vivo"}, "bacterial diarrhea": {"system": "bacterial diarrhea", "assay": "Administration to milking bovines, bacterial diarrhea", "type": "in vivo, bovine", "from_the_text": "In the milking bovines, a bacterial diarrhea started to spread. Initially, four bovines infected by the bacterial diarrhea one after another. […] The bovines fed as usual even in the condition of diarrhea and no decrease in the amount of milk was observed."}}}
{"substance": "Cyclic Poly-lactate [CPL]", "values": [{"measurement": "CEA", "setting": "subclavian lymphoma; decreased from 20.4", "value": 5.4}, {"measurement": "CA 15", "setting": "subclavian lymphoma; decreased from 70", "value": 20.3}, {"measurement": "findings of ameliorated adverse reactions, macrobiotic effects and suggestion of a cure", "setting": "cancer", "value": "observed in the majority"}, {"measurement": "colon tumors of 2 cm in size (Stage 2-3)", "setting": "colon cancer; 20 g/day for 150 days, in 2 weeks", "value": "disappeared"}, {"measurement": "examination for colon cancer", "setting": "colon cancer; examination 5 months later", "value": "No abnormalities were found"}, {"measurement": "examination findings and recurrence of bladder cancer", "setting": "bladder cancer; male, resection performed 5 times, 20-30 g/day for 50 days", "value": "no abnormal findings from examinations, nor a recurrence"}, {"measurement": "course of bladder cancer", "setting": "bladder cancer; person, 40-50 g/day for 270 days", "value": "improved from the terminal stage"}, {"measurement": "excretion of gas, defecation and amount of urine", "setting": "uterine/ovarian cancer; person with ileus, 4-6 g/day", "value": "increased"}, {"measurement": "ileus symptoms", "setting": "uterine/ovarian cancer; person, 7 days later", "value": "negative"}, {"measurement": "recurrence of ileus symptoms", "setting": "uterine/ovarian cancer; person, discharged 3 months later", "value": "No recurrent ileus symptoms"}, {"measurement": "cancerous pain", "setting": "uterine/ovarian cancer; person, oral ingestion 15-20 g/day", "value": "ameliorated"}, {"measurement": "response of mastitis", "setting": "mastitis; oral, 50 g of CPL (powder) dissolved in water", "value": "Complete response"}, {"measurement": "milking from the other normal udders during treatment", "setting": "mastitis; treatment using CPL alone", "value": "available"}, {"measurement": "outcome of patient with pancreatic cancer considered incurable", "setting": "pancreatic cancer", "value": "recovered"}, {"measurement": "controlling the proliferation of periodontal disease bacteria", "setting": "[1]", "value": "effective"}, {"measurement": "outcome of liver cancer", "setting": "liver cancer; 20 g/day for 150 days", "value": "cured"}, {"measurement": "outcome of liver cancer originated from liver cirrhosis", "setting": "liver cancer; 20 g/day for 210 days", "value": "cured"}, {"measurement": "proliferation of cancer cells", "setting": "cancer cells", "value": "controls the proliferation"}, {"measurement": "fatty acid composition of triglyceride", "setting": "lipid metabolism system", "value": "changes"}, {"measurement": "need for dialysis", "setting": "[2]", "value": "dialysis was not necessary"}, {"measurement": "MIRS values in patient suffering from lung cancer", "setting": "lung cancer", "value": "increased significantly"}, {"measurement": "outcome of laryngeal cancer", "setting": "laryngeal cancer", "value": "cured"}, {"measurement": "bone density", "setting": "[3]", "value": "increased"}, {"measurement": "WBC", "setting": "[4]; bovine 901 (Screening), 3 May, treatment from 30 April, pretreatment 97", "value": "96 ×10^2"}, {"measurement": "GOT", "setting": "[4]; bovine 901 (Screening), 3 May, treatment from 30 April, pretreatment 134", "value": 128, "unit": "U/I"}, {"measurement": "TCHO", "setting": "[4]; bovine 901 (Screening), 3 May, treatment from 30 April, pretreatment 255", "value": 266, "unit": "mg/dL"}, {"measurement": "CPK", "setting": "[4]; bovine 901 (Screening), 3 May, treatment from 30 April, pretreatment 819", "value": 82, "unit": "U/I"}, {"measurement": "WBC", "setting": "[4]; bovine 901 (Screening), 7 May, pretreatment 97", "value": "94 ×10^2"}, {"measurement": "GOT", "setting": "[4]; bovine 901 (Screening), 7 May, pretreatment 134", "value": 116, "unit": "U/I"}, {"measurement": "TCHO", "setting": "[4]; bovine 901 (Screening), 7 May, pretreatment 255", "value": 245, "unit": "mg/dL"}, {"measurement": "CPK", "setting": "[4]; bovine 901 (Screening), 7 May, pretreatment 819", "value": 97, "unit": "U/I"}, {"measurement": "WBC", "setting": "[4]; bovine 901 (Screening), 10 May, completion date of treatment, pretreatment 97", "value": "71 ×10^2"}, {"measurement": "GOT", "setting": "[4]; bovine 901 (Screening), 10 May, completion date of treatment, pretreatment 134", "value": 115, "unit": "U/I"}, {"measurement": "TCHO", "setting": "[4]; bovine 901 (Screening), 10 May, completion date of treatment, pretreatment 255", "value": 286, "unit": "mg/dL"}, {"measurement": "CPK", "setting": "[4]; bovine 901 (Screening), 10 May, completion date of treatment, pretreatment 819", "value": 113, "unit": "U/I"}, {"measurement": "WBC", "setting": "[4]; bovine 923 (Garget), 3 May, treatment from 30 April, Spectrazol 2-4 May, pretreatment 101", "value": "111 ×10^2"}, {"measurement": "GOT", "setting": "[4]; bovine 923 (Garget), 3 May, treatment from 30 April, Spectrazol 2-4 May, pretreatment 123", "value": 107, "unit": "U/I"}, {"measurement": "TCHO", "setting": "[4]; bovine 923 (Garget), 3 May, treatment from 30 April, Spectrazol 2-4 May, pretreatment 247", "value": 255, "unit": "mg/dL"}, {"measurement": "CPK", "setting": "[4]; bovine 923 (Garget), 3 May, treatment from 30 April, Spectrazol 2-4 May, pretreatment 563", "value": 203, "unit": "U/I"}, {"measurement": "WBC", "setting": "[4]; bovine 923 (Garget), 7 May, pretreatment 101", "value": "97 ×10^2"}, {"measurement": "GOT", "setting": "[4]; bovine 923 (Garget), 7 May, pretreatment 123", "value": 81, "unit": "U/I"}, {"measurement": "TCHO", "setting": "[4]; bovine 923 (Garget), 7 May, pretreatment 247", "value": 208, "unit": "mg/dL"}, {"measurement": "CPK", "setting": "[4]; bovine 923 (Garget), 7 May, pretreatment 563", "value": 133, "unit": "U/I"}, {"measurement": "WBC", "setting": "[4]; bovine 923 (Garget), 10 May, completion date of treatment, pretreatment 101", "value": "110 ×10^2"}, {"measurement": "GOT", "setting": "[4]; bovine 923 (Garget), 10 May, completion date of treatment, pretreatment 123", "value": 107, "unit": "U/I"}, {"measurement": "TCHO", "setting": "[4]; bovine 923 (Garget), 10 May, completion date of treatment, pretreatment 247", "value": 259, "unit": "mg/dL"}, {"measurement": "CPK", "setting": "[4]; bovine 923 (Garget), 10 May, completion date of treatment, pretreatment 563", "value": 121, "unit": "U/I"}, {"measurement": "other blood responses such as WBC, GOT, and TCHO", "setting": "[4]; bovines given CPL", "value": "no specific changes"}, {"measurement": "CPK (muscle enzyme) mean level", "setting": "[4]; group of bovines with markedly high levels of CPK", "value": "extremely low"}, {"measurement": "symptom of pneumonia", "setting": "pneumonia", "value": "improved"}, {"measurement": "outcome of diarrhea in calves changing to milk substitute", "setting": "diarrhea; 20-30 g/day", "value": "recovered completely"}, {"measurement": "diarrhea in calves that took CPL (prevention)", "setting": "diarrhea; 20 g/day for the first 4-5 days", "value": "spontaneously cured"}, {"measurement": "time to complete recovery after CPL administration", "setting": "diarrhea; calves, 20-30 g/day", "value": "approximately 3 days"}, {"measurement": "mastitis prevention", "setting": "[5]; 50 g/day from 3 to 5 days before expected date of delivery", "value": "confirmed to play a role in mastitis prevention"}, {"measurement": "delivery of calves", "setting": "[5]; 50 g/day initiated 5 days before expected date of delivery", "value": "smoothly"}, {"measurement": "CA125 of tumor marker", "setting": "endometriosis; endometriosis patients, in the majority of the patients", "value": "improves"}, {"measurement": "symptoms of menorrhagia", "setting": "endometriosis; person, 10 g/day orally", "value": "ameliorated"}, {"measurement": "menstrual pain", "setting": "endometriosis; person, 10 g/day orally, next menstruation", "value": "ameliorated"}, {"measurement": "response of bacterial diarrhea", "setting": "bacterial diarrhea; 50 g/day, 100 g/day of Neothor in combination in severe cases, in most bovines", "value": "complete response"}, {"measurement": "amount of milk", "setting": "bacterial diarrhea; bovines with bacterial diarrhea given 50 g/day", "value": "no decrease"}]}
